The target in series [1] is Voltage-gated inwardly rectifying potassium channel KCNH2 (Homo sapiens, UniProt Q12809). As to conditions: hek293. Further: in other assays of this panel Not Active means under 50% inhibition at 10 µM.
The target of series [2] is T1, Alpha-2A adrenergic receptor (Homo sapiens, UniProt P08913). Further: in other assays of this panel Not Active means under 50% inhibition at 10 µM.
T1 sequence (P08913 whole entry): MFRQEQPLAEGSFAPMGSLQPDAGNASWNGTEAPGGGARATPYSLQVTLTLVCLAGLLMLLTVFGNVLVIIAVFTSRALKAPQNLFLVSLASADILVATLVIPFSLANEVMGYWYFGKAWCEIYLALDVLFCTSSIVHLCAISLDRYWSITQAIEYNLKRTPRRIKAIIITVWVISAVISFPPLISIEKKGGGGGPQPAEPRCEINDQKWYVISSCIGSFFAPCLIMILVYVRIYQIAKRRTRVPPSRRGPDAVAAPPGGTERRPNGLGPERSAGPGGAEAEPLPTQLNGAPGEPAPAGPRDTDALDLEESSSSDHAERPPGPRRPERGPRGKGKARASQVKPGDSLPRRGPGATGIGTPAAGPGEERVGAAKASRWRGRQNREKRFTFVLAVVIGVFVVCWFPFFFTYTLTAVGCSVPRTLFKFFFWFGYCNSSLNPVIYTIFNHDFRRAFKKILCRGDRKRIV
It is filed as cell membranes, Sf9, Membrane. As to conditions: for Ki: read-out: Ki.

The target of a further series is Cytochrome P450 2E1 (Homo sapiens, UniProt P05181). As to conditions: bti-tn-5b1-4. Further: in other assays of this panel Not Active means under 50% inhibition at 10 µM.
The next series has as its target T2, Progesterone receptor (Bos taurus, UniProt Q690N0).
T2 sequence (Q690N0 whole entry): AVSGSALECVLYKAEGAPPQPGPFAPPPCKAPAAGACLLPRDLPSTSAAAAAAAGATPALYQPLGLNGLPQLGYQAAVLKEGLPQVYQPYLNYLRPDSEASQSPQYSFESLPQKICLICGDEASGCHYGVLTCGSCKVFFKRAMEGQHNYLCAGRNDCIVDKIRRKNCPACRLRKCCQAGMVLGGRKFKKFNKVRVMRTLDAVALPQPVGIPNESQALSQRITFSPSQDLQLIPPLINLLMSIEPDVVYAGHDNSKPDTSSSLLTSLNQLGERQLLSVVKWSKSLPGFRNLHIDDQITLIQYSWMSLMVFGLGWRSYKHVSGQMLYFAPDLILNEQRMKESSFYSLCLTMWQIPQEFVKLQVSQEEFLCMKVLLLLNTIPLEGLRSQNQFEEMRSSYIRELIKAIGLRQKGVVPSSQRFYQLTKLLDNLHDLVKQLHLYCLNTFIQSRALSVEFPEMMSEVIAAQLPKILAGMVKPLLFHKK
Nature of the series: DRUGMATRIX: Progesterone radioligand binding (ligand: [3H] R-5020). It is filed as tissue-based, Uterus. As to conditions: Not Active = under 50% inhibition at 10 µM; for Ki: read-out: Ki.

The target of another series is T3, Cytochrome P450 2A6 (Homo sapiens, UniProt P11509). Further: in other assays of this panel Not Active means under 50% inhibition at 10 µM.
T3 sequence (P11509 whole entry): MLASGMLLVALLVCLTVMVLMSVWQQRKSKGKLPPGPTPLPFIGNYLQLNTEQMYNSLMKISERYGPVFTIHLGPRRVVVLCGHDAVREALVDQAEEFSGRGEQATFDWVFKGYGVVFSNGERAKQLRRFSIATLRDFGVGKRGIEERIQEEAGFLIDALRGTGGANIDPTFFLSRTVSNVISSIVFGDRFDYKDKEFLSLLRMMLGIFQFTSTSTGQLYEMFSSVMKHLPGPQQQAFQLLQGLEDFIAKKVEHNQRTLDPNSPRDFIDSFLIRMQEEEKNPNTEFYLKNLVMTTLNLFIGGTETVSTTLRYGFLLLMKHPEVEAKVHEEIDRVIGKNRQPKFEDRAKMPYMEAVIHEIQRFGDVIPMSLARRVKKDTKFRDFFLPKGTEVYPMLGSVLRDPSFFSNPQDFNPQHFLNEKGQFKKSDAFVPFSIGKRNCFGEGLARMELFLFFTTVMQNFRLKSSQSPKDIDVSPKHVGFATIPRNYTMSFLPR
As to conditions: bti-tn-5b1-4.

The target of another series is Mu-type opioid receptor (Homo sapiens, UniProt P35372). In words: DRUGMATRIX: Opiate mu (OP3, MOP) radioligand binding (ligand: [3H] Diprenorphine). As to conditions: cho-k1; Not Active = under 50% inhibition at 10 µM. It is filed as cell membranes, CHO-K1, Membrane.
Series [3] has as its target Kappa-type opioid receptor (Homo sapiens, UniProt P41145). Nature of the series: DRUGMATRIX: Opiate kappa (OP2, KOP) radioligand binding (ligand: [3H] Diprenorphine). It is filed as cell membranes, HEK293, Membrane. To be noted: hek293; Not Active = under 50% inhibition at 10 µM.

Voltage-gated inwardly rectifying potassium channel KCNH2, sequence (Q12809 whole entry): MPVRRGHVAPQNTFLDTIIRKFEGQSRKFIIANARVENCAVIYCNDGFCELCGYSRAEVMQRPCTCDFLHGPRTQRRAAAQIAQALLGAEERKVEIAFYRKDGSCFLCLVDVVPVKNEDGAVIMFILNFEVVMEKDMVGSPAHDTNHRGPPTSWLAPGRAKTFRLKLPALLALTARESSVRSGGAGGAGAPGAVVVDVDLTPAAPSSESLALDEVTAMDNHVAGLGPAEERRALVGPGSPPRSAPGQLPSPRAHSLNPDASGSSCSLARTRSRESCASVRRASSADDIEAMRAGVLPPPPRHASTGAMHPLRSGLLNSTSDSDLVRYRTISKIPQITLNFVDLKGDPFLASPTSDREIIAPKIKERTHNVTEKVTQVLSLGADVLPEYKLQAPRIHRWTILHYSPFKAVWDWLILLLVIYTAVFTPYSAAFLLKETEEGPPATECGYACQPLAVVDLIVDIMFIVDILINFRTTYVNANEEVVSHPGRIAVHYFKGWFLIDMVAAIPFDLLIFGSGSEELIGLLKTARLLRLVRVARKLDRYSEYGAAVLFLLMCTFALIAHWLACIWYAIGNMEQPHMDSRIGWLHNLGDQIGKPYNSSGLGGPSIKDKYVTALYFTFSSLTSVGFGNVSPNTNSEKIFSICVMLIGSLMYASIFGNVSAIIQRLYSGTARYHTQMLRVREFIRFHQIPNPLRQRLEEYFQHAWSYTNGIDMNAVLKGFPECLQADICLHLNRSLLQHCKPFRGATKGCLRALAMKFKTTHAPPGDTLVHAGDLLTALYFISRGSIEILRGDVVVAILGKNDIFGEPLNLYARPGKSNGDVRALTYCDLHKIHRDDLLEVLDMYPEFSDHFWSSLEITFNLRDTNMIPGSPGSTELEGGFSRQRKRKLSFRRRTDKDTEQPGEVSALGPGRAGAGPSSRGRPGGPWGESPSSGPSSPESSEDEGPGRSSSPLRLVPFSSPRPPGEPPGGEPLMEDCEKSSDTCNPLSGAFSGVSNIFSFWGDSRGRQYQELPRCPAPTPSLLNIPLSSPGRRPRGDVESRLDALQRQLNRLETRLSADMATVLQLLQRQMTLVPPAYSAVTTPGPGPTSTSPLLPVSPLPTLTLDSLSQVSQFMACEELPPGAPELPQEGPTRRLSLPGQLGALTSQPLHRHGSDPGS
Mu-type opioid receptor, sequence (P35372 whole entry): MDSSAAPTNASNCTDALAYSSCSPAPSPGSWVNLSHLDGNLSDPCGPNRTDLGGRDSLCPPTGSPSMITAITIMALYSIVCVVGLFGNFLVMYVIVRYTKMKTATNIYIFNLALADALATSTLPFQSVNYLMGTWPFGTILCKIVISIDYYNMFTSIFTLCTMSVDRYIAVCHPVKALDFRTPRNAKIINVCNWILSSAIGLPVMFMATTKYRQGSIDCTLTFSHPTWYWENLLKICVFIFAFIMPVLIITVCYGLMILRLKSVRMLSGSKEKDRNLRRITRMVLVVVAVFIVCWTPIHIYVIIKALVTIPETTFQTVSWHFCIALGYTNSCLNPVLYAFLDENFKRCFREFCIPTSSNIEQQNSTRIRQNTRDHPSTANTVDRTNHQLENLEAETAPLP
Kappa-type opioid receptor, sequence (P41145 whole entry): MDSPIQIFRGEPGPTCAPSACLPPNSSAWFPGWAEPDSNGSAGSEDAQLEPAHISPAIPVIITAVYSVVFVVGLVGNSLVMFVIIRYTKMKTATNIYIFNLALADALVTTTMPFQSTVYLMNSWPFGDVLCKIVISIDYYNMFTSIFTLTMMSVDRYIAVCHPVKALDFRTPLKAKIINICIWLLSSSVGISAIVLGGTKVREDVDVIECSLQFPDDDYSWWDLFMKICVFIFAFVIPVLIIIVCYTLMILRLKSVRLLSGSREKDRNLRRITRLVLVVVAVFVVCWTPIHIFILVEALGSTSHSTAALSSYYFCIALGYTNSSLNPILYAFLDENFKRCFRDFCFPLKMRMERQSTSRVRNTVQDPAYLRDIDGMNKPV
Cytochrome P450 2E1, sequence (P05181 whole entry): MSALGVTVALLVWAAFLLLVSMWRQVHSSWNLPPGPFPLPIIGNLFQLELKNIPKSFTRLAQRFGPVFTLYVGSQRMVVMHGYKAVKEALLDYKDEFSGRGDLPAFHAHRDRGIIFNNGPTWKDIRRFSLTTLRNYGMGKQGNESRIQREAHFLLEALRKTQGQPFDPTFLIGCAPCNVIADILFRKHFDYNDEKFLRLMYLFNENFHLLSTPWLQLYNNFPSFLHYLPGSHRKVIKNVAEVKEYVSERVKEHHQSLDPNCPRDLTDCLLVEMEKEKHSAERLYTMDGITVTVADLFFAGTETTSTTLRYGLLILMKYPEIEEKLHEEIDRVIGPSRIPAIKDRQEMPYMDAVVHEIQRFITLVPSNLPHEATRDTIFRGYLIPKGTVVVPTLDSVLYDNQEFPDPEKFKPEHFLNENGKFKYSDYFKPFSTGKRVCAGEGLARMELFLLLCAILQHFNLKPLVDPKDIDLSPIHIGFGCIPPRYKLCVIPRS

Consider `CCOc1cc(N)c(Cl)cc1C(=O)NCC1CN(Cc2ccc(F)cc2)CCO1` (centres undefined) [MOSAPRIDE], for which the IC50 entry in series [1] was “Not Active”; in series [2] (read-out: IC50) it was 3680 nM; at Cytochrome P450 2E1, “Not Active”; at Progesterone receptor it was “Not Active”; on Cytochrome P450 2A6, “Not Active”; at Mu-type opioid receptor, “Not Active”. For the same molecule, the IC50 result in series [3] is recorded as “Not Active”. Besides, the Ki entry in series [1] is “Not Active”; in series [2], 1380 nM; at Cytochrome P450 2E1 it was “Not Active”; at Cytochrome P450 2A6, “Not Active”.

As to `CC(N)C12CC3CC(CC(C3)C1)C2` (centres undefined) [RIMANTADINE], the IC50 entry (in series [1]; in series [2] (sf9); on Cytochrome P450 2E1; on Progesterone receptor; against Cytochrome P450 2A6; at Mu-type opioid receptor) was “Not Active” in each case. In addition, the IC50 entry in series [3] is on record as “Not Active”. The Ki entry (in series [1]; on Cytochrome P450 2E1; at Cytochrome P450 2A6) was “Not Active” throughout.

For `CS(=O)(=O)c1ccc(C2=C(c3ccccc3)C(=O)OC2)cc1` [ROFECOXIB], the IC50 result (in series [1]; in series [2] (sf9); against Cytochrome P450 2E1; on Progesterone receptor; on Cytochrome P450 2A6; at Mu-type opioid receptor) was “Not Active” throughout. The IC50 result in series [3] was “Not Active”. The Ki result (in series [1]; on Cytochrome P450 2E1; at Cytochrome P450 2A6) was “Not Active” each time.

For `C=CCc1ccc2c(c1)OCO2` [SAFROLE], the IC50 result (in series [1]; in series [2] (sf9); against Cytochrome P450 2E1; at Progesterone receptor; against Cytochrome P450 2A6; on Mu-type opioid receptor) was “Not Active” in each case. The IC50 entry in series [3] is reported as “Not Active”. The Ki entry (in series [1]; on Cytochrome P450 2E1; on Cytochrome P450 2A6) was “Not Active” each time.

As to `C[C@]12CCC(=O)C[C@@H]1CC[C@@H]1[C@@H]2CC[C@]2(C)[C@@H](O)CC[C@@H]12` [STANOLONE], the IC50 entry in series [1] is “Not Active”; in series [2] (sf9), “Not Active”; against Cytochrome P450 2E1, “Not Active”; on Progesterone receptor (read-out: IC50), 1250 nM; at Cytochrome P450 2A6, “Not Active”; on Mu-type opioid receptor it was “Not Active”. Besides, in series [3], the IC50 result was “Not Active”. Also, the Ki entry was “Not Active” in series [1], “Not Active” on Cytochrome P450 2E1, 163 nM on Progesterone receptor and “Not Active” at Cytochrome P450 2A6.

Regarding `Cc1cn([C@H]2C=C[C@@H](CO)O2)c(=O)[nH]c1=O` [STAVUDINE], the IC50 result (in series [1]; in series [2] (sf9); at Cytochrome P450 2E1; on Progesterone receptor; against Cytochrome P450 2A6; on Mu-type opioid receptor) was “Not Active” each time. For the same molecule, the IC50 entry in series [3] is on record as “Not Active”. Also, the Ki entry (in series [1]; on Cytochrome P450 2E1; on Cytochrome P450 2A6) was “Not Active” throughout.

As for `CC1(C)[C@H](C(=O)O)N2C(=O)C[C@H]2S1(=O)=O` [SULBACTAM], the IC50 entry (in series [1]; in series [2] (sf9); against Cytochrome P450 2E1; at Progesterone receptor; on Cytochrome P450 2A6; at Mu-type opioid receptor) was “Not Active” in each case. For the same molecule, in series [3], the IC50 result is reported as “Not Active”. Besides, the Ki result (in series [1]; on Cytochrome P450 2E1; on Cytochrome P450 2A6) was “Not Active” in each case.

On to `Cc1ccnc(NS(=O)(=O)c2ccc(N)cc2)n1` [SULFAMERAZINE], for which the IC50 result (in series [1]; in series [2] (sf9); at Cytochrome P450 2E1; on Progesterone receptor; at Cytochrome P450 2A6; on Mu-type opioid receptor) was “Not Active” in each case. Further, the IC50 result in series [3] is “Not Active”. The Ki result (in series [1]; on Cytochrome P450 2E1; on Cytochrome P450 2A6) was “Not Active” each time.

`Cc1nnc(NS(=O)(=O)c2ccc(N)cc2)s1` [SULFAMETHIZOLE]: the IC50 result (in series [1]; in series [2] (sf9); on Cytochrome P450 2E1; at Progesterone receptor; at Cytochrome P450 2A6; at Mu-type opioid receptor) was “Not Active” in each case. Moreover, the IC50 entry in series [3] is on record as “Not Active”. Moreover, the Ki entry (in series [1]; at Cytochrome P450 2E1; on Cytochrome P450 2A6) was “Not Active” in each case.

In the case of `O=C(O)c1cc(/N=N/c2ccc(S(=O)(=O)Nc3ccccn3)cc2)ccc1O` [SULFASALAZINE], the IC50 result (in series [1]; in series [2] (sf9); on Cytochrome P450 2E1; on Progesterone receptor; on Cytochrome P450 2A6; on Mu-type opioid receptor) was “Not Active” in each case. Besides, the IC50 entry in series [3] was “Not Active”. The Ki entry (in series [1]; at Cytochrome P450 2E1; at Cytochrome P450 2A6) was “Not Active” in each case.

As to `CCN1CCCC1CNC(=O)c1cc(S(N)(=O)=O)ccc1OC` (centres undefined) [SULPIRIDE], the IC50 result in series [1] is “Not Active”; in series [2] (read-out: IC50), 2020 nM; on Cytochrome P450 2E1 it was “Not Active”; on Progesterone receptor, “Not Active”; at Cytochrome P450 2A6, “Not Active”; on Mu-type opioid receptor it was “Not Active”. Besides, the IC50 entry in series [3] is “Not Active”. The Ki entry in series [1] is “Not Active”; in series [2], 757 nM; on Cytochrome P450 2E1, “Not Active”; at Cytochrome P450 2A6, “Not Active”.

Regarding `O=C(OC[C@H]1O[C@@H](OC(=O)c2cc(O)c(O)c(OC(=O)c3cc(O)c(O)c(O)c3)c2)[C@H](OC(=O)c2cc(O)c(O)c(OC(=O)c3cc(O)c(O)c(O)c3)c2)[C@@H](OC(=O)c2cc(O)c(O)c(OC(=O)c3cc(O)c(O)c(O)c3)c2)[C@@H]1OC(=O)c1cc(O)c(O)c(OC(=O)c2cc(O)c(O)c(O)c2)c1)c1cc(O)c(O)c(OC(=O)c2cc(O)c(O)c(O)c2)c1` [TANNIC ACID], the IC50 entry (in series [1]; in series [2] (sf9); at Cytochrome P450 2E1; at Progesterone receptor; at Cytochrome P450 2A6; at Mu-type opioid receptor) was “Not Active” throughout. Further, the IC50 entry in series [3] is given as “Not Active”. For the same molecule, the Ki result (in series [1]; on Cytochrome P450 2E1; at Cytochrome P450 2A6) was “Not Active” in each case.

Regarding `C#C[C@]1(O)CC[C@H]2[C@@H]3[C@H](C)CC4=C(CCC(=O)C4)[C@H]3CC[C@@]21C` [TIBOLONE], the IC50 result was “Not Active” in series [1]; “Not Active” in series [2] (sf9); “Not Active” against Cytochrome P450 2E1; 220 nM at Progesterone receptor (read-out: IC50); “Not Active” at Cytochrome P450 2A6; “Not Active” at Mu-type opioid receptor. The IC50 result in series [3] is recorded as “Not Active”. The Ki result in series [1] was “Not Active”; on Cytochrome P450 2E1, “Not Active”; on Progesterone receptor it was 28.7 nM; at Cytochrome P450 2A6 it was “Not Active”.

For the molecule `CC[C@@]1(O)C(=O)OCc2c1cc1n(c2=O)Cc2cc3c(CN(C)C)c(O)ccc3nc2-1` [TOPOTECAN], the IC50 entry (in series [1]; in series [2] (sf9); on Cytochrome P450 2E1; at Progesterone receptor; on Cytochrome P450 2A6; at Mu-type opioid receptor) was “Not Active” each time. In addition, the IC50 entry in series [3] is recorded as “Not Active”. Moreover, the Ki result (in series [1]; at Cytochrome P450 2E1; on Cytochrome P450 2A6) was “Not Active” throughout.

For the origin of these results see ChEMBL document CHEMBL1909046, “DrugMatrix in vitro pharmacology data”.
